Experimental data published in patent US8987312B2, “Alpha-keto heterocycles as FAAH inhibitors” (The Scripps Research Institute, priority 2008, dated 2015).
Like-named read-outs stand apart in the source and are kept apart here. Blank lines part the entries; values can stand above or below the compound they belong to.

Key:
Type in all cases: biochemical
KIAA1363 = target: T1, KIAA1363 (Mus musculus, UniProt Q8BLF1); assay: Activity based protein profiling (proteome-wide selectivity screening, FP-Rh), KIAA1363; settings: Table 4; for IC50: activity based protein profiling
T1 construct: with FP-Rh in brain and heart membrane proteome; from tissue; host or cells: brain and heart membrane proteome
T1 sequence (Q8BLF1 1-408): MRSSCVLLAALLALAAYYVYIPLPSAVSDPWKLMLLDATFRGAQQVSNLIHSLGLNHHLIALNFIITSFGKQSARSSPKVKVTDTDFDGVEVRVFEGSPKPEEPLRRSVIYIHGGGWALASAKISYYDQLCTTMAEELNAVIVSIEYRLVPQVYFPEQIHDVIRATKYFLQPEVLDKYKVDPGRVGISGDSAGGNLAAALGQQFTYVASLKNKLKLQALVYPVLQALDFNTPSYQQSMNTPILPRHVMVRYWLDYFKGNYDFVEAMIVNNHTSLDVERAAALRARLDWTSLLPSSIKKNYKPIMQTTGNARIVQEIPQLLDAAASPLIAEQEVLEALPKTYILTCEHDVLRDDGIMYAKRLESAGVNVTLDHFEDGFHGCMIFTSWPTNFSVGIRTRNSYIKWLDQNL
Source text: (§1) Enzyme targets such as FAAH, KIAA1363, and TGH are labeled at the left margin.

[1] = target: T2, purified recombinant rat FAAH (Rattus norvegicus, UniProt P97612); assay: FAAH inhibition enzyme assay (14C-oleamide hydrolysis, Dixon plot), rat enzyme
T2 construct: The truncated rat FAAH (rFAAH) was expressed in E. coli and purified as described; made in house; host or cells: Escherichia coli
T2 sequence (P97612 30-579 limits assumed): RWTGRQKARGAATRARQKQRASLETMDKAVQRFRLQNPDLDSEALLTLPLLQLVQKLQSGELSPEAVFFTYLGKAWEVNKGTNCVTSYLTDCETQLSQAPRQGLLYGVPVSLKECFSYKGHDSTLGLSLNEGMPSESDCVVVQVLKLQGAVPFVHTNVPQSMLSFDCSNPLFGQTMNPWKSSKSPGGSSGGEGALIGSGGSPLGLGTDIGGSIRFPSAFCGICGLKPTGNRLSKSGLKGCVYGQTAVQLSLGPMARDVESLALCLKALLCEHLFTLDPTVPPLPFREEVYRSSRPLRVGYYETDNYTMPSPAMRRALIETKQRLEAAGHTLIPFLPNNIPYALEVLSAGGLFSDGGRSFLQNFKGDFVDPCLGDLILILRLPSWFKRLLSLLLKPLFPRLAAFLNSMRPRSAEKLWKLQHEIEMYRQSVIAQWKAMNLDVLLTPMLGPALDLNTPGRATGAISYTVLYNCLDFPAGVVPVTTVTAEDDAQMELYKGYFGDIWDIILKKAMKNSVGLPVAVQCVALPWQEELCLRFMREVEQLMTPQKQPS
Source text: The purified recombinant rFAAH was used in the inhibition assays unless otherwise indicated.
The ^14C-labeled oleamide (substrate) and oleic acid (product) were extracted with EtOAc and analyzed by TLC.

[2] = target: T3, triacylglycerol hydrolase (TGH) (Mus musculus, UniProt Q8VCT4); assay: Activity based protein profiling (proteome-wide selectivity screening, FP-Rh), TGH; settings: Table 4; for IC50: activity based protein profiling; for TGH selectivity (value in parentheses): ratio TGH IC50 / FAAH IC50 (fold selectivity for FAAH)
T3 construct: with FP-Rh in brain and heart membrane proteome; from tissue; host or cells: brain and heart membrane proteome
T3 sequence (Q8VCT4 19-565): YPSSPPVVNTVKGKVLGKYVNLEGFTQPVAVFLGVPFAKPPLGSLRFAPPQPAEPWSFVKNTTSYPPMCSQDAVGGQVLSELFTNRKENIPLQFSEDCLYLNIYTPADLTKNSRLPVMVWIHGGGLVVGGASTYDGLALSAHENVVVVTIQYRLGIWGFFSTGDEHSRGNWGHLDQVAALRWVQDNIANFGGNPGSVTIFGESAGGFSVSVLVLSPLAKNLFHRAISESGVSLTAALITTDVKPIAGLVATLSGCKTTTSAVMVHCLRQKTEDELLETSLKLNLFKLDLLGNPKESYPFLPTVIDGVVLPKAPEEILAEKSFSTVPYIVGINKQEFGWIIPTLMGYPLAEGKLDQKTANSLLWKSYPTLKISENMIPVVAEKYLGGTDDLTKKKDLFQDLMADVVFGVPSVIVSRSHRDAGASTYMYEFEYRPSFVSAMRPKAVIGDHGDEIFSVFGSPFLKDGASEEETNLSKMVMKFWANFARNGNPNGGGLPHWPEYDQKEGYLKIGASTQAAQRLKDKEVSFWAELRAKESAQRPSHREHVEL
Source text: as §1

[3] = Table 2, rat FAAH, pH 9 assay conditions, read-out: Ki
[4] = rat FAAH, pH 9 assay conditions

SMILES: COC(=O)c1cccc(-c2nnc(C(=O)CCCCCCc3ccccc3)s2)n1 [12f, Methyl 6-(5-(7-Phenylheptanoyl)-1,3,4-thiadiazol-2-yl)-picolinate]
IC50 (KIAA1363): > 100000 nM

SMILES: O=C(CCCCCCc1ccccc1)c1ncc(-c2ccccn2)s1 [11b, 7-Phenyl-1-(5-(pyridin-2-yl)-thiazol-2-yl)-heptan-1-one]
IC50 [2]: 8000 nM | IC50 (KIAA1363): > 100000 nM

SMILES: O=C(CCCCCCc1ccccc1)c1nnc(-c2ccco2)o1 [8c]
TGH selectivity (value in parentheses) [2]: 80 | Ki [1, 3]: 0.56 nM

SMILES: O=C(CCCCCCc1ccccc1)c1noc(-c2ccco2)n1 [10c, 1-(5-(Furan-2-yl)-1,2,4-oxadiazol-3-yl)-7-phenylheptan-1-one]
Ki [1, 3]: 8.5 nM

SMILES: O=C(CCCCCCc1ccccc1)c1nnc(-c2cccs2)s1 [12d, 7-Phenyl-1-(5-(thiophen-2-yl)-1,3,4-thiadiazol-2-yl)-heptan-1-one]
Ki [1, 3]: 27 nM

SMILES: Cn1nnc(C(=O)CCCCCCc2ccccc2)n1 [19a, 1-(2-Methyl-2H-tetrazol-5-yl)-7-phenylheptan-1-one]
FAAH inhibition (in words) [1, 4]: displayed FAAH inhibition at levels consistent with related compounds

SMILES: O=C(CCCCCCc1ccccc1)c1nnc(-c2cccs2)o1 [8d, 7-Phenyl-1-(5-(thien-2-yl)-1,3,4-oxadiazol-2-yl)-heptan-1-one]
Ki [1, 3]: 0.8 nM

SMILES: O=C(CCCCCCc1ccccc1)c1ncc(-c2cccs2)s1 [11d, 7-Phenyl-1-(5-(thiophen-2-yl)-thiazol-2-yl)-heptan-1-one]
Ki [1, 3]: 2000 nM

SMILES: O=C(CCCCCCc1ccccc1)c1ncc(-c2ccccn2)o1 [compound 2, reference compound]
IC50 [2]: 600 nM

SMILES: O=C(CCCCCCc1ccccc1)c1cnc(-c2ccccn2)o1 [compound 6, 7-Phenyl-1-(2-(pyridin-2-yl)oxazol-5-yl)-heptan-1-one]
loss of FAAH inhibition ([1]; with respect to oxazole 2): > 4000 fold

SMILES: O=C(CCCCCCc1ccccc1)c1ccc(-c2ccccn2)nn1 [13b, 7-Phenyl-1-(6-(pyridin-2-yl)-pyridazin-3-yl)-heptan-1-one]
IC50 [2]: > 100000 nM | IC50 (KIAA1363): > 100000 nM

SMILES: O=C(CCCCCCc1ccccc1)c1nc(-c2ccco2)no1 [9c, 1-(3-(Furan-2-yl)-1,2,4-oxadiazol-5-yl)-7-phenylheptan-1-one]
Ki [1, 3]: 1 nM

SMILES: Cn1nnnc1C(=O)CCCCCCc1ccccc1 [19b, 1-(1-Methyl-1H-tetrazol-5-yl)-7-phenylheptan-1-one]
FAAH inhibition (in words) [1, 4]: displayed FAAH inhibition at levels consistent with related compounds

SMILES: O=C(CCCCCCc1ccccc1)c1nnc(-c2ccco2)s1 [12c, 1-(5-(Furan-2-yl)-1,3,4-thiadiazol-2-yl)-7-phenylheptan-1-one]
Ki [1, 3]: 7.4 nM

SMILES: O=C(CCCCCCc1ccccc1)c1ccc(-c2cccs2)nn1 [13d, 7-Phenyl-1-(6-(thiophen-2-yl)-pyridazin-3-yl)-heptan-1-one]
Ki [1, 3]: 46 nM

SMILES: O=C(O)c1cccc(-c2noc(C(=O)CCCCCCc3ccccc3)n2)n1 [9g, 6-(5-(7-Phenylheptanoyl)-1,2,4-oxadiazol-3-yl)-picolinic Acid]
IC50 [2]: 40000 nM | IC50 (KIAA1363): > 100000 nM

SMILES: O=C(O)c1cccc(-c2cnc(C(=O)CCCCCCc3ccccc3)s2)n1 [11g, 6-(2-(7-Phenylheptanoyl)thiazol-5-yl)-picolinic Acid]
IC50 [2]: 30000 nM | IC50 (KIAA1363): > 100000 nM

SMILES: O=C(O)c1cccc(-c2ccc(C(=O)CCCCCCc3ccccc3)nn2)n1 [13g, 6-(6-(7-Phenylheptanoyl)-pyridazin-3-yl)-picolinic Acid]
IC50 [2]: > 100000 nM | IC50 (KIAA1363): > 100000 nM

SMILES: COC(=O)c1cccc(-c2nc(C(=O)CCCCCCc3ccccc3)no2)n1 [10f, Methyl 6-(3-(7-Phenylheptanoyl)-1,2,4-oxadiazol-5-yl)-picolinate]
IC50 (KIAA1363): > 100000 nM

SMILES: O=C(CCCCCCc1ccccc1)c1ccc(-c2ccco2)nn1 [13c, 1-(6-(Furan-2-yl)-pyridazin-3-yl)-7-phenylheptan-1-one]
Ki [1, 3]: 40 nM

SMILES: COC(=O)c1nnc(C(=O)CCCCCCc2ccccc2)s1 [12h, Methyl 5-(7-Phenylheptanoyl)-1,3,4-thiadiazole-2-carboxylate]
IC50 [2]: 11000 nM | IC50 (KIAA1363): > 100000 nM

SMILES: O=C(CCCCCCc1ccccc1)c1nnc(-c2ccccc2)o1 [8e]
TGH selectivity (value in parentheses) [2]: 10 | Ki [1, 3]: 2.2 nM | Ki ([1]; Table 4, read-out: FAAH Ki): 2.2 nM | KIAA1363 selectivity (value in parentheses) (KIAA1363; ratio KIAA1363 IC50 / FAAH IC50 (fold selectivity for FAAH)): > 4000

SMILES: O=C(O)c1cccc(-c2nnc(C(=O)CCCCCCc3ccccc3)s2)n1 [12g, 6-(5-(7-Phenylheptanoyl)-1,3,4-thiadiazol-2-yl)-picolinic Acid]
IC50 [2]: > 100000 nM | IC50 (KIAA1363): > 100000 nM

SMILES: O=C(CCCCCCc1ccccc1)c1ncc(-c2ccco2)s1 [11c, 1-(5-(Furan-2-yl)-thiazol-2-yl)-7-phenylheptan-1-one]
Ki [1, 3]: 1500 nM

SMILES: O=C(CCCCCCc1ccccc1)c1nc(-c2cccs2)no1 [9d, 7-Phenyl-1-(3-(thiophen-2-yl)-1,2,4-oxadiazol-5-yl)-heptan-1-one]
Ki [1, 3]: 1.6 nM

SMILES: COC(=O)c1nnc(C(=O)CCCCCCc2ccccc2)o1 [8h, Methyl 5-(7-Phenylheptanoyl)-1,3,4-oxadiazole-2-carboxylate]
IC50 [2]: 2000 nM | IC50 (KIAA1363): > 100000 nM

SMILES: O=C(CCCCCCc1ccccc1)c1noc(-c2cccs2)n1 [10d, 7-Phenyl-1-(5-(thiophen-2-yl)-1,2,4-oxadiazol-3-yl)-heptan-1-one]
Ki [1, 3]: 44 nM

Further lines, results first:

Ki [1, 3]: > 1000 nM
SMILES: O=C(CCCCCCc1ccccc1)c1nnc(-c2ccco2)[nH]1 [14c, 1-(5-(Furan-2-yl)-4H-1,2,4-triazol-3-yl)-7-phenylheptan-1-one]

FAAH inhibition (in words) [1, 4]: inactive
SMILES: COC(=O)c1nnc(C(=O)CCCCCCc2ccccc2)[nH]1 [14h, Methyl 5-(7-Phenylheptanoyl)-4H-1,2,4-triazole-3-carboxylate]

Ki [1, 3]: 16 nM
SMILES: O=C(CCCCCCc1ccccc1)c1nnn(-c2ccccc2)n1 [15e, 7-Phenyl-1-(2-phenyl-2H-tetrazol-5-yl)-heptan-1-one]

Ki [1, 3]: 5 nM
SMILES: O=C(CCCCCCc1ccccc1)c1nnn(-c2ccco2)n1 [15c, 1-(2-(Furan-2-yl)-2H-tetrazol-5-yl)-7-phenylheptan-1-one]

Ki [1, 3]: > 1000 nM
SMILES: O=C(CCCCCCc1ccccc1)c1nnc(-c2cccs2)[nH]1 [14d, 7-Phenyl-1-(5-(thiophen-2-yl)-4H-1,2,4-triazol-3-yl)-heptan-1-one]

Ki [1, 3]: > 100000 nM
SMILES: O=C(CCCCCCc1ccccc1)c1nnc(-c2ccccn2)[nH]1 [14b, 7-Phenyl-1-(5-(pyridin-2-yl)-4H-1,2,4-triazol-3-yl)-heptan-1-one]

Ki [1, 3]: 8.5 nM
SMILES: O=C(CCCCCCc1ccccc1)c1nnn(-c2cccs2)n1 [15d, 7-Phenyl-1-(2-(thiophen-2-yl)-2H-tetrazol-5-yl)-heptan-1-one]

Ki [1, 3]: > 1000 nM
SMILES: O=C(CCCCCCc1ccccc1)c1nnc[nH]1 [14a, 7-Phenyl-1-(4H-1,2,4-triazol-3-yl)-heptan-1-one]
